Assay results published in patent US9688702B2, “Alpha-amino boronic acid derivatives, selective immunoproteasome inhibitors” (Ares Trading S.A, priority 2011, dated 2017).
pIC50: −log10 of the molar value.

Assays:
[1] = biological target: LMP7 (purified human immuno proteasome) (Homo sapiens, UniProt P28062); experiment: Determination of LMP7 activity (fluorescence intensity assay, Suc-LLVY-AMC); format: biochemical; conditions: for pIC50: 40 μM Suc-LLVY-AMC, 37° C.
Experimental: Measurement of LMP7 inhibition is performed in 384 well format based on fluorescence intensity assay.
(§1) Purified human immuno proteasome (0.5 nM) and serial diluted compounds in DMSO (range of concentrations from 10 μM to 38 pM) or controls (0.5% DMSO) are incubated for 30 minutes at 37° C. in assay buffer containing 50 mM Tris pH 7.4 and 0.03% SDS. The reaction is initiated by the addition of the fluorogenic peptide substrate, Suc-LLVY-AMC (Bachem I-1395), at a concentration of 40 μM. After 90 minutes of incubation at 37° C., fluorescence intensity is measured at λex=350 nm and λem=450 nm with a fluorescence reader (BMG Pherastar reader or equivalent).
as §1, with “proteasome (0.25” for “proteasome (0.5”

[2] = biological target: Beta5 (purified human constitutive proteasome) (Homo sapiens, UniProt P28074); experiment: Determination of Beta5 activity (fluorescence intensity assay, Suc-LLVY-AMC); format: biochemical; conditions: purified human constitutive proteasome 1.0 nM, 40 μM Suc-LLVY-AMC, 37° C.
Experimental: Measurement of Beta5 inhibition is performed in 384 well format based on fluorescence intensity assay.
as §1, with “human constitutive” for “human immuno”, “proteasome (1.0” for “proteasome (0.5”, “(Bachem 1-1395),” for “(Bachem I-1395),”

[3] = purified human immuno proteasome 0.5 nM
[4] = purified human immuno proteasome 0.25 nM (examples 79, 80, 83, 84, 85, 87, 88, 89, 90, 91, 93, 94, 96, 97, 101 and 110)

SMILES	Selectivity LMP7 vs Beta5 [1]	pIC50 [1, 3]	pIC50 [2]	pIC50 [1, 4]
O=C(CCn1cnc2ccccc21)N[C@@H](Cc1cccc(OC(F)(F)F)c1)B(O)O [Example 59, (R)-(1-(3-(1H-benzo[d]imidazol-1-yl)propanamido)-2-(3-(trifluoromethoxy)phenyl)ethyl)boronic acid]	+ (+: Selectivity < 10)	> 7.30	6.30 to 7.30	
CCc1cccc(C[C@H](NC(=O)CCn2c(C)nc3ccccc32)B(O)O)c1 [Example 54, (R)-(2-(3-ethylphenyl)-1-(3-(2-methyl-1H-benzo[d]imidazol-1-yl)propanamido)ethyl)boronic acid]	++ (++: 10 < Selectivity < 30)	> 7.30	6.30 to 7.30	
COc1ccc(C(=O)C[C@@H](Cc2ccccc2)C(=O)N[C@@H](Cc2ccc(OC)c(C(F)(F)F)c2)B(O)O)cc1 [Example 45, ((R)-1-((R)-2-benzyl-4-(4-methoxyphenyl)-4-oxobutanamido)-2-(4-methoxy-3-(trifluoromethyl)phenyl)ethyl)boronic acid]	+++ (+++: Selectivity > 30)	> 7.30	5.30 to 6.30	
O=C(CCc1cccc(F)c1)N[C@@H](Cc1coc2ccccc12)B(O)O [Example 85, (R)-(2-(benzofuran-3-yl)-1-(3-(3-fluorophenyl)propanamido)ethyl) boronic acid]	+++ (+++: Selectivity > 30)		> 7.30	> 7.30
Cc1nc2ccccc2n1CCC(=O)N[C@@H](Cc1ccsc1)B(O)O [Example 55, (R)-(1-(3-(2-methyl-1H-benzo[d]imidazol-1-yl)propanamido)-2-(thiophen-3-yl)ethyl)boronic acid]	+ (+: Selectivity < 10)	> 7.30	6.30 to 7.30	
O=C(CCn1c(=O)sc2ccccc21)N[C@@H](Cc1coc2ccccc12)B(O)O [Example 87, (R)-(2-(benzofuran-3-yl)-1-(3-(2-oxobenzo[d]thiazol-3(2H)-yl)propanamido)ethyl)boronic acid]	++ (++: 10 < Selectivity < 30)		> 7.30	> 7.30
COc1ccc(-n2cc(CCC(=O)N[C@@H](Cc3coc4ccccc34)B(O)O)nn2)cc1 [Example 90, (R)-(2-(benzofuran-3-yl)-1-(3-(1-(4-methoxyphenyl)-1H-1,2,3-triazol-4-yl)propanamido)ethyl)boronic acid]	+++ (+++: Selectivity > 30)		> 7.30	> 7.30
COc1ccc(C(=O)CCC(=O)N[C@@H](Cc2ccc(OC)c(C(F)(F)F)c2)B(O)O)cc1 [Example 46, (R)-(2-(4-methoxy-3-(trifluoromethyl)phenyl)-1-(4-(4-methoxyphenyl)-4-oxobutanamido)ethyl)boronic acid]		6.30 to 7.30	< 5.30	
CCc1cccc(C[C@H](NC(=O)[C@H](CC(=O)c2ccccc2)c2cccc(Cl)c2)B(O)O)c1 (single isomer, unassigned) [Example 14]	+++ (+++: Selectivity > 30)	6.30 to 7.30	5.30 to 6.30	
COc1ccc(-n2cc(CCC(=O)N[C@@H](Cc3ccc4ccccc4c3)B(O)O)nn2)cc1 [Example 100, (R)-(1-(3-(1-(4-methoxyphenyl)-1H-1,2,3-triazol-4-yl)propanamido)-2-(naphthalen-2-yl)ethyl)boronic acid]	++ (++: 10 < Selectivity < 30)	> 7.30	6.30 to 7.30	
CCc1cccc(C[C@H](NC(=O)CCn2cc(-c3ccccc3)nn2)B(O)O)c1 [Example 52, (R)-(2-(3-ethylphenyl)-1-(3-(4-phenyl-1H-1,2,3-triazol-1-yl)propanamido)ethyl)boronic acid]	+++ (+++: Selectivity > 30)	> 7.30	6.30 to 7.30	
O=C(CCn1cnc2ccccc21)N[C@@H](Cc1ccc2ccccc2c1)B(O)O [Example 97, (R)-(1-(3-(1H-benzo[d]imidazol-1-yl)propanamido)-2-(naphthalen-2-yl)ethyl)boronic acid]	++ (++: 10 < Selectivity < 30)		> 7.30	> 7.30
